Assay results taken from PubChem BioAssay AID1963450 (Molecular Pharmacology Branch, DTP, NCI, 2024).

Tested on: 556581-035-R-J1-PDC complex spheroid growth
Experiment: Anticancer human tumor 556581-035-R-J1-PDC patient-derived ovarian carcinoma cell line growth inhibition [Asc]
Details: for IC50: curve of first compound; for viability, T/C: stronger effect = lower value
Procedure, shortened: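 Concentration series start at each agent's clinical Cmax, or at 10 microM when none is established, and drop in half-log steps; agents are applied alone or together to complex spheroids built with HUVEC and hMSC.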

[1] = second compound 0.1 µM, first compound 0.00316 µM
[2] = second compound 0.1 µM, first compound 0.01 µM
[3] = second compound 0.1 µM, first compound 0.0316 µM
[4] = second compound 0.1 µM, first compound 0.1 µM
[5] = second compound 0.1 µM, first compound 0.316 µM
[6] = second compound 0.1 µM, first compound 1 µM
[7] = second compound 0.316 µM, first compound 0.00316 µM
[8] = second compound 0.316 µM, first compound 0.01 µM
[9] = second compound 0.316 µM, first compound 0.0316 µM
[10] = second compound 0.316 µM, first compound 0.1 µM
[11] = second compound 0.316 µM, first compound 0.316 µM
[12] = second compound 0.316 µM, first compound 1 µM
[13] = second compound 1 µM, first compound 0.00316 µM
[14] = second compound 1 µM, first compound 0.01 µM
[15] = second compound 1 µM, first compound 0.0316 µM
[16] = second compound 1 µM, first compound 0.1 µM
[17] = second compound 1 µM, first compound 0.316 µM
[18] = second compound 1 µM, first compound 1 µM
[19] = second compound 3.16 µM, first compound 0.00316 µM
[20] = second compound 3.16 µM, first compound 0.01 µM
[21] = second compound 3.16 µM, first compound 0.0316 µM
[22] = second compound 3.16 µM, first compound 0.1 µM
[23] = second compound 3.16 µM, first compound 0.316 µM
[24] = second compound 3.16 µM, first compound 1 µM
[25] = second compound 10 µM, first compound 0.00316 µM
[26] = second compound 10 µM, first compound 0.01 µM
[27] = second compound 10 µM, first compound 0.0316 µM
[28] = second compound 10 µM, first compound 0.1 µM
[29] = second compound 10 µM, first compound 0.316 µM
[30] = second compound 10 µM, first compound 1 µM
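Further: spheroids exposed to agents for 7 days before viability read.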

CCN1CCN(Cc2ccc(Nc3ncc(F)c(-c4cc(F)c5nc(C)n(C(C)C)c5c4)n3)nc2)CC1 + Cc1c(S(C)(=O)=O)c(-c2cc(F)cc(N3CCN(c4ccc(NS(=O)(=O)c5ccc(NC(CCN6CCC(C(=O)OCCCP(=O)(O)O)CC6)CSc6ccccc6)c(S(=O)(=O)C(F)(F)F)c5)cc4)CC3)c2)c(-c2ccc(Cl)cc2)n1C(C)C
IC50 (second compound 0.1 µM): > 1000 nM | IC50 (second compound 0.316 µM): > 1000 nM | IC50 (second compound 1 µM): 556 nM | IC50 (second compound 3.16 µM): 782 nM | IC50 (second compound 10 µM): 490 nM | viability, T/C [1]: 99.3% | viability, T/C [2]: 75.3% | viability, T/C [3]: 88.9% | viability, T/C [4]: 78.1% | viability, T/C [5]: 87.8% | viability, T/C [6]: 61% | viability, T/C [7]: 83.7% | viability, T/C [8]: 77.5% | viability, T/C [9]: 86.5% | viability, T/C [10]: 83.5% | viability, T/C [11]: 74.7% | viability, T/C [12]: 57.5% | viability, T/C [13]: 78.2% | viability, T/C [14]: 89.6% | viability, T/C [15]: 86.6% | viability, T/C [16]: 77.3% | viability, T/C [17]: 62% | viability, T/C [18]: 37.9% | viability, T/C [19]: 69.6% | viability, T/C [20]: 86.1% | viability, T/C [21]: 90.1% | viability, T/C [22]: 66.5% | viability, T/C [23]: 67.6% | viability, T/C [24]: 45.5% | viability, T/C [25]: 68.9% | viability, T/C [26]: 69.7% | viability, T/C [27]: 79.9% | viability, T/C [28]: 64% | viability, T/C [29]: 70.6% | viability, T/C [30]: 16.7%

Cn1ncnc1[C@H]1c2n[nH]c(=O)c3cc(F)cc(c23)N[C@@H]1c1ccc(F)cc1 + Cc1c(S(C)(=O)=O)c(-c2cc(F)cc(N3CCN(c4ccc(NS(=O)(=O)c5ccc(NC(CCN6CCC(C(=O)OCCCP(=O)(O)O)CC6)CSc6ccccc6)c(S(=O)(=O)C(F)(F)F)c5)cc4)CC3)c2)c(-c2ccc(Cl)cc2)n1C(C)C
IC50 (second compound 0.1 µM): > 100 nM | IC50 (second compound 0.316 µM): > 100 nM | IC50 (second compound 1 µM): > 100 nM | IC50 (second compound 3.16 µM): > 100 nM | IC50 (second compound 10 µM): > 100 nM | viability, T/C (second compound 0.1 µM, first compound 0.000316 µM): 67.5% | viability, T/C (second compound 0.1 µM, first compound 0.001 µM): 88% | viability, T/C [1]: 94.8% | viability, T/C [2]: 78% | viability, T/C [3]: 84.4% | viability, T/C [4]: 77.2% | viability, T/C (second compound 0.316 µM, first compound 0.000316 µM): 84.9% | viability, T/C (second compound 0.316 µM, first compound 0.001 µM): 81.1% | viability, T/C [7]: 72% | viability, T/C [8]: 66.6% | viability, T/C [9]: 79.9% | viability, T/C [10]: 84% | viability, T/C (second compound 1 µM, first compound 0.000316 µM): 79.5% | viability, T/C (second compound 1 µM, first compound 0.001 µM): 84.2% | viability, T/C [13]: 78.3% | viability, T/C [14]: 79.8% | viability, T/C [15]: 73.7% | viability, T/C [16]: 72.1% | viability, T/C (second compound 3.16 µM, first compound 0.000316 µM): 74.3% | viability, T/C (second compound 3.16 µM, first compound 0.001 µM): 73.2% | viability, T/C [19]: 70.2% | viability, T/C [20]: 72.9% | viability, T/C [21]: 64.4% | viability, T/C [22]: 81.8% | viability, T/C (second compound 10 µM, first compound 0.000316 µM): 86.4% | viability, T/C (second compound 10 µM, first compound 0.001 µM): 69.2% | viability, T/C [25]: 66.5% | viability, T/C [26]: 64.5% | viability, T/C [27]: 62.7% | viability, T/C [28]: 64.9%

O=C(c1ccc(F)c(F)c1Nc1ccc(I)cc1F)N1CC(O)([C@@H]2CCCCN2)C1 + Cc1c(S(C)(=O)=O)c(-c2cc(F)cc(N3CCN(c4ccc(NS(=O)(=O)c5ccc(NC(CCN6CCC(C(=O)OCCCP(=O)(O)O)CC6)CSc6ccccc6)c(S(=O)(=O)C(F)(F)F)c5)cc4)CC3)c2)c(-c2ccc(Cl)cc2)n1C(C)C
IC50 (second compound 0.1 µM): 92.9 nM | IC50 (second compound 0.316 µM): 55.4 nM | IC50 (second compound 1 µM): 44 nM | IC50 (second compound 3.16 µM): 56.6 nM | IC50 (second compound 10 µM): 4.93 nM | viability, T/C [1]: 73% | viability, T/C [2]: 66.8% | viability, T/C [3]: 72.6% | viability, T/C [4]: 44.9% | viability, T/C [5]: 23.8% | viability, T/C [6]: 4.45% | viability, T/C [7]: 59.6% | viability, T/C [8]: 58.8% | viability, T/C [9]: 61.6% | viability, T/C [10]: 39.4% | viability, T/C [11]: 21.6% | viability, T/C [12]: 25.9% | viability, T/C [13]: 70% | viability, T/C [14]: 73.7% | viability, T/C [15]: 57.1% | viability, T/C [16]: 29.5% | viability, T/C [17]: 8.66% | viability, T/C [18]: 1.82% | viability, T/C [19]: 67.7% | viability, T/C [20]: 54.5% | viability, T/C [21]: 57.4% | viability, T/C [22]: 45.5% | viability, T/C [23]: 22.3% | viability, T/C [24]: 4.54% | viability, T/C [25]: 49.6% | viability, T/C [26]: 51.9% | viability, T/C [27]: 40.5% | viability, T/C [28]: 15.2% | viability, T/C [29]: 38.4% | viability, T/C [30]: 16%
